From US10059688B2, “Protein tyrosine kinase modulators and methods of use” (BETTA PHARMACEUTICALS CO., LTD., priority 2013, dated 2018) come the findings set out here.

What all share (assay): Kinase assay, single dose inhibition (Millipore, 33P-ATP filter binding)
Common to all, as to type: biochemical
What all share (details): 0.1 μM test compound, 10 μM ATP; remaining activity relative to DMSO control = 100%

Assay [1] addresses EGFR (T790M, L858R) (h) (Homo sapiens (Human), UniProt P00533, L858R/T790M).
Assay [2] concerns the target ALK (h) (Homo sapiens (Human), UniProt Q9UM73).
In assay [3] the target is EGFR (L858R) (h) (Homo sapiens (Human), UniProt P00533, L858R).
Assay [4] addresses EGFR (h) (Homo sapiens (Human), UniProt P00533).
In assay [5] the target is EGFR (T790M) (h) (Homo sapiens (Human), UniProt P00533, T790M).
Sequence of EGFR (T790M) (h) (P00533 25-1210 T790M): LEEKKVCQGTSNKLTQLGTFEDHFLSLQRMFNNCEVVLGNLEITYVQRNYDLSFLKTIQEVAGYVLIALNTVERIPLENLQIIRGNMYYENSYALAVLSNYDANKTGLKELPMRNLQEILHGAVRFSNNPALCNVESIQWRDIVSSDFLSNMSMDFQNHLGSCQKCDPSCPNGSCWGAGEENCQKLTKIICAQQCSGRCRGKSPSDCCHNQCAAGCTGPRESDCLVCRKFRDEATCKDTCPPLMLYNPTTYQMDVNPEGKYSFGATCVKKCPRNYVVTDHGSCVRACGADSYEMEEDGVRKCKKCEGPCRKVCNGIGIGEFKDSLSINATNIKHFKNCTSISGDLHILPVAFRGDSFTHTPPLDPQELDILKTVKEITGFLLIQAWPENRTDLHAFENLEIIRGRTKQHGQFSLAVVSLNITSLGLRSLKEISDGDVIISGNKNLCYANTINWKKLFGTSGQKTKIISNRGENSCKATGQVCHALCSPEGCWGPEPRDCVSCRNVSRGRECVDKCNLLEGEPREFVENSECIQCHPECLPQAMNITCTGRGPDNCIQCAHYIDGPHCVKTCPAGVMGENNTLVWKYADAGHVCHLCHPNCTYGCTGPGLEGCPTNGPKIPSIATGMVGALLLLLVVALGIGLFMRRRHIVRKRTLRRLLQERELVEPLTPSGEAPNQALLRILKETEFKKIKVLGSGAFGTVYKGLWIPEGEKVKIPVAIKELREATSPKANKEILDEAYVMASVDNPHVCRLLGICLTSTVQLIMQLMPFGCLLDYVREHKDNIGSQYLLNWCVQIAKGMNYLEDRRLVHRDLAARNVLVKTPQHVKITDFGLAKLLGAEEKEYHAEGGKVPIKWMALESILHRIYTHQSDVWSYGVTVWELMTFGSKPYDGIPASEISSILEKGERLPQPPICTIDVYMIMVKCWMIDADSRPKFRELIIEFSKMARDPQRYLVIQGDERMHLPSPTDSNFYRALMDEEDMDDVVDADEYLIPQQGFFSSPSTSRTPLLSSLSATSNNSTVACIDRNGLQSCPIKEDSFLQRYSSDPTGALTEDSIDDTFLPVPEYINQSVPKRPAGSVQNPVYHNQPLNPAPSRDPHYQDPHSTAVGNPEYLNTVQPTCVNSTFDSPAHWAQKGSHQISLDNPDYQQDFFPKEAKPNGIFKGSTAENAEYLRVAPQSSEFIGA

Sequence of EGFR (h) (P00533 25-1210): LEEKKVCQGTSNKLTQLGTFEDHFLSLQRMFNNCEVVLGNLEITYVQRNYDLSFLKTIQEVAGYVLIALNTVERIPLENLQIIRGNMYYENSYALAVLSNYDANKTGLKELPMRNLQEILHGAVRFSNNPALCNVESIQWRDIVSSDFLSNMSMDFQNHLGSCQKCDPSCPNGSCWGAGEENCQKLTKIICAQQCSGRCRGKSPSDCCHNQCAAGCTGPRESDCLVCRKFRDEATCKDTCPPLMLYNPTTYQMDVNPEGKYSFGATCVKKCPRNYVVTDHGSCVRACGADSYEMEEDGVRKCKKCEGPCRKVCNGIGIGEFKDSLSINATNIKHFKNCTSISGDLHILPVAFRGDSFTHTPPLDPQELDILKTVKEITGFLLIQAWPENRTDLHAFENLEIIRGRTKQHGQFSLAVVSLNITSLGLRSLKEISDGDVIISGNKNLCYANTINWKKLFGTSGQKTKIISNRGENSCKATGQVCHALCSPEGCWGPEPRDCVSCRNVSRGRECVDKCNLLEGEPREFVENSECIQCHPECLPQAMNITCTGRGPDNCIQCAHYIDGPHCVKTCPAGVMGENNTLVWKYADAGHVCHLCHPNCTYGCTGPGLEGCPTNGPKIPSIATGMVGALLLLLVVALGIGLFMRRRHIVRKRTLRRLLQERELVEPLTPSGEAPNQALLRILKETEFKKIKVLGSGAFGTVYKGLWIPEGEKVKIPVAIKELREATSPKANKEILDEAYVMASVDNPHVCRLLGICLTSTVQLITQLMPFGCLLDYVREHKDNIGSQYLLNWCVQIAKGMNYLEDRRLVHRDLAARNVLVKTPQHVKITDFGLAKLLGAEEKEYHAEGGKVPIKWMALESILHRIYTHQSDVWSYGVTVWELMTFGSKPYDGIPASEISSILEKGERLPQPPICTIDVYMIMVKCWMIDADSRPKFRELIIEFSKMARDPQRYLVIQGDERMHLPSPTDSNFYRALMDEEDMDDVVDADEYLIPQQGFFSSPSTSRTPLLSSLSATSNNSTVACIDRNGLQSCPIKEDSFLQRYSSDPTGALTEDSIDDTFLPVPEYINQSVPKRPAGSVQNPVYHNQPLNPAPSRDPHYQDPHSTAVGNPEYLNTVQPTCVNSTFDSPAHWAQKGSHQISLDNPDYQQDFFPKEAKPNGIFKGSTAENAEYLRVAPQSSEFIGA
Sequence of EGFR (T790M, L858R) (h) (P00533 25-1210 T790M/L858R): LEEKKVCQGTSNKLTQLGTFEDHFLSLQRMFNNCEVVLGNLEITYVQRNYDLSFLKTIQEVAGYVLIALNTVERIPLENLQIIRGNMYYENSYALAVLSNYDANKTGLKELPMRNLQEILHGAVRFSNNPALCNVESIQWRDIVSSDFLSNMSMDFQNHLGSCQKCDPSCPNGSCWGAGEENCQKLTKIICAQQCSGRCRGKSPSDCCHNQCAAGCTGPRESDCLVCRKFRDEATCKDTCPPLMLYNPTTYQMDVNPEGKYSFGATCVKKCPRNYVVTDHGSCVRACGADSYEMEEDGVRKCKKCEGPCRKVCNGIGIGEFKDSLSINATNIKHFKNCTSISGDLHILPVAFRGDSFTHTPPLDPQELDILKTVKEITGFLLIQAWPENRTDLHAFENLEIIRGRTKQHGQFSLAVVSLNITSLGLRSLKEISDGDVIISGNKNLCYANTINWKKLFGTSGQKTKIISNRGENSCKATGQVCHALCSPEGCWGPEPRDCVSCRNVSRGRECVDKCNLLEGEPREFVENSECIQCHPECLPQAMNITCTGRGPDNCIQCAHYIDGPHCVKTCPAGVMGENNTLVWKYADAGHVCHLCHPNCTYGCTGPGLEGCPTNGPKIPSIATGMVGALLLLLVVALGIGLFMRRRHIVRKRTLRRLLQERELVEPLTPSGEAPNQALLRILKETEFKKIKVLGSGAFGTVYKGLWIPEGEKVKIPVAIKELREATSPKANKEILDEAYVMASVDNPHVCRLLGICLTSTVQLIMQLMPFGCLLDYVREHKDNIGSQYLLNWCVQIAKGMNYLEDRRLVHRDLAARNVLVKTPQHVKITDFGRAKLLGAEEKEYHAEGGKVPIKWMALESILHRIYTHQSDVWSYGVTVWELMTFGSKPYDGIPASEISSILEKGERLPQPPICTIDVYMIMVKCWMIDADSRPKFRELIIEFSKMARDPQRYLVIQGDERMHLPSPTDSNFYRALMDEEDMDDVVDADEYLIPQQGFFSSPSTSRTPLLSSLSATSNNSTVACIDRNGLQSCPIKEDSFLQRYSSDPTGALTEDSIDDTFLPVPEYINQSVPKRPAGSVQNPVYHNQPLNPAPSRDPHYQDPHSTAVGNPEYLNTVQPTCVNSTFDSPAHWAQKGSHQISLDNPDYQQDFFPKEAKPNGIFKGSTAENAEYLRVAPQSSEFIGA
Sequence of EGFR (L858R) (h) (P00533 25-1210 L858R): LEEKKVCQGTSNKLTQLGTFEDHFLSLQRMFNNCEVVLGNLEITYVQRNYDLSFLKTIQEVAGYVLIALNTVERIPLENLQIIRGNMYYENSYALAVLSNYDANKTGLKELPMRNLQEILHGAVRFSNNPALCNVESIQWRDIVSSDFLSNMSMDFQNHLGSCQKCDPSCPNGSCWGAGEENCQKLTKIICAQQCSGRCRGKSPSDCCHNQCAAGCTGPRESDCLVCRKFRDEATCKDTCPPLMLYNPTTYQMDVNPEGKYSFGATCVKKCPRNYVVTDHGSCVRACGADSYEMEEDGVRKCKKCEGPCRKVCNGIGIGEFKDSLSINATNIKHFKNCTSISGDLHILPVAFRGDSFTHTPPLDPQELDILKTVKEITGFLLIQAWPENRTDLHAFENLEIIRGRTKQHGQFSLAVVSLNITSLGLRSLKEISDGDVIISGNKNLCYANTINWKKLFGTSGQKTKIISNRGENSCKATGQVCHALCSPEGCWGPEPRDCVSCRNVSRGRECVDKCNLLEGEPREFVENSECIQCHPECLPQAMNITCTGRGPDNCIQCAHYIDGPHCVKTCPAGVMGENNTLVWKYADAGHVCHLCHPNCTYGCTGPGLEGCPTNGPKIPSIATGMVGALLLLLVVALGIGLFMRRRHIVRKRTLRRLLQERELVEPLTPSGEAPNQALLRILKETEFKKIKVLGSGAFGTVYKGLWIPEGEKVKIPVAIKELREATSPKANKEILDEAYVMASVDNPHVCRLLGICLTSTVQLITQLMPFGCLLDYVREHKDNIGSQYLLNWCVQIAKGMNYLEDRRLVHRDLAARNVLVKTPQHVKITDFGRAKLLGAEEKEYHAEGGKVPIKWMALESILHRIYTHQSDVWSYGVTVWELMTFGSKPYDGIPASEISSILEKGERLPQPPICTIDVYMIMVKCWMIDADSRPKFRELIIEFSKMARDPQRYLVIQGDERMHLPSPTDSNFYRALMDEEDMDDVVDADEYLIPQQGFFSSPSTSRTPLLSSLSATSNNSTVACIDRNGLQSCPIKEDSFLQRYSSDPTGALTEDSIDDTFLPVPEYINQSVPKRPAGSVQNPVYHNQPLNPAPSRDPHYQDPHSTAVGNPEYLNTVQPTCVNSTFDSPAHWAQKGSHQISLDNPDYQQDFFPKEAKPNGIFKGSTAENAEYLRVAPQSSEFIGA

Consider `COc1ccc(NC(=O)/C=C/CN(C)C)cc1Nc1ncc(Cl)c(Nc2ccccc2C(=O)C(=O)N(C)C)n1` [Example 80, (E)-N-(3-(5-chloro-4-(2-(2-(dimethylamino)-2-oxoacetyl)phenylamino)pyrimidin-2-ylamino)-4-methoxyphenyl)-4-(dimethylamino)but-2-enamide], for which, in assay [1], the “Activity (control) % EGFR (T790M, L858R) (h)” value is recorded as 7%. In assay [2], the “Activity (control) % ALK (h)” value turned out to be 10%. Further, the “Activity (control) % EGFR (L858R) (h)” value in assay [3] stood at 43%. Besides, the “Activity (control) % EGFR (h)” value in assay [4] came to 101%. The “Activity (control) % EGFR (T790M) (h)” value in assay [5] is on record as 42%.

For the molecule `C=CC(=O)Nc1ccc(OC)c(Nc2ncc(Cl)c(Nc3ccccc3C(=O)C(=O)N3CCN(C)CC3)n2)c1` [Example 89, N-(3-(5-chloro-4-(2-(2-(4-methylpiperazin-1-yl)-2-oxoacetyl)phenylamino)pyrimidin-2-ylamino)-4-methoxyphenyl)acrylamide], in assay [1], the “Activity (control) % EGFR (T790M, L858R) (h)” value was determined as 1%. Moreover, in assay [2], the “Activity (control) % ALK (h)” value is 8%. Besides, the “Activity (control) % EGFR (L858R) (h)” value in assay [3] is reported as 10%. Moreover, the “Activity (control) % EGFR (h)” value in assay [4] is reported as 67%. Besides, in assay [5], the “Activity (control) % EGFR (T790M) (h)” value worked out at 5%.

For the molecule `COc1cc(Nc2ncc(Cl)c(Nc3ccccc3C(=O)C(=O)N(C)C)n2)ccc1N1CCN(C(C)=O)CC1` [Example 94, 2-(2-(2-(4-(4-acetylpiperazin-1-yl)-3-methoxyphenylamino)-5-chloropyrimidin-4-ylamino)phenyl)-N,N-dimethyl-2-oxoacetamide], the “Activity (control) % EGFR (T790M, L858R) (h)” value in assay [1] stood at 9%. In addition, the “Activity (control) % ALK (h)” value in assay [2] is listed as 6%. In assay [3], the “Activity (control) % EGFR (L858R) (h)” value was found to be 84%. Further, in assay [4], the “Activity (control) % EGFR (h)” value turned out to be 100%. For the same molecule, the “Activity (control) % EGFR (T790M) (h)” value in assay [5] is 45%.

Turning to `C=C(CN1CCCC1)C(=O)Nc1ccc(OC)c(Nc2ncc(Cl)c(Nc3ccccc3C(=O)C(=O)N(C)C)n2)c1` [Example 97, N-(3-(5-chloro-4-(2-(2-(dimethylamino)-2-oxoactyl)phenylamino)pyrimidin-2-ylamino)-4-methoxyphenyl)-2-(pyrrolidin-1-ylmethyl)acrylamide], the “Activity (control) % EGFR (T790M, L858R) (h)” value in assay [1] turned out to be 6%. The “Activity (control) % ALK (h)” value in assay [2] is given as 23%. For the same molecule, the “Activity (control) % EGFR (L858R) (h)” value in assay [3] is given as 46%. The “Activity (control) % EGFR (h)” value in assay [4] is given as 74%. In addition, the “Activity (control) % EGFR (T790M) (h)” value in assay [5] is 2%.

In the case of `C=CC(=O)Nc1cc(Nc2ncc(C)c(Nc3ccccc3C(=O)C(=O)N(C)C)n2)ccc1OC` [Example 101, N-(5-(4-(2-(2-(dimethylamino)-2-oxoacetyl)phenylamino)-5-methylpyrimidin-2-ylamino)-2-methoxyphenyl)acrylamide], in assay [1], the “Activity (control) % EGFR (T790M, L858R) (h)” value worked out at 41%. For the same molecule, the “Activity (control) % ALK (h)” value in assay [2] came out at 35%. Moreover, in assay [3], the “Activity (control) % EGFR (L858R) (h)” value came out at 94%. The “Activity (control) % EGFR (h)” value in assay [4] is 110%. In addition, the “Activity (control) % EGFR (T790M) (h)” value in assay [5] turned out to be 83%.

As to `C=CC(=O)Nc1cc(Nc2ncc(Cl)c(Nc3ccccc3C(=O)C(=O)N(C)CCN(C)C)n2)ccc1OC` [Example 102, N-(5-(5-chloro-4-(2-(2-((2-(dimethylamino)ethyl)(methyl)amino)-2-oxoactyl)phenylamino)pyrimidin-2-ylamino)-2-methoxyphenyl)acrylamide], in assay [1], the “Activity (control) % EGFR (T790M, L858R) (h)” value worked out at 5%. In assay [2], the “Activity (control) % ALK (h)” value is listed as 5%. Further, the “Activity (control) % EGFR (L858R) (h)” value in assay [3] is 57%. Moreover, the “Activity (control) % EGFR (h)” value in assay [4] worked out at 98%. Further, the “Activity (control) % EGFR (T790M) (h)” value in assay [5] is 40%.

`C=CC(=O)Nc1cc(Nc2ncc(Cl)c(Nc3ccccc3C(=O)C(=O)N(C)C)n2)ccc1N1CCN(C)CC1` [Example 111, N-(5-(5-chloro-4-(2-(2-(dimethylamino)-2-oxoactyl)phenylamino)pyrimidin-2-ylamino)-2-(4-methylpiperazin-1-yl)phenyl)acrylamide]: the “Activity (control) % EGFR (T790M, L858R) (h)” value in assay [1] stood at 11%. Also, the “Activity (control) % ALK (h)” value in assay [2] stood at 8%. Also, the “Activity (control) % EGFR (L858R) (h)” value in assay [3] is reported as 76%. In addition, the “Activity (control) % EGFR (h)” value in assay [4] was determined as 109%. The “Activity (control) % EGFR (T790M) (h)” value in assay [5] came to 59%.

Turning to `C=C(CN1CCCCC1)C(=O)Nc1cccc(Nc2ncc(Cl)c(Nc3ccccc3C(=O)C(=O)N(C)C)n2)c1` [Example 113, N-(3-(5-chloro-4-(2-(2-(dimethylamino)-2-oxoacetyl)phenylamino)pyrimidin-2-ylamino)phenyl)-2-(piperidin-1-ylmethyl)acrylamide], in assay [1], the “Activity (control) % EGFR (T790M, L858R) (h)” value is given as 3%. In addition, in assay [2], the “Activity (control) % ALK (h)” value is 19%. Moreover, the “Activity (control) % EGFR (L858R) (h)” value in assay [3] is reported as 78%. Also, in assay [4], the “Activity (control) % EGFR (h)” value is on record as 88%. The “Activity (control) % EGFR (T790M) (h)” value in assay [5] came to 16%.

Turning to `CN(C)C/C=C/C(=O)Nc1cccc(Nc2ncc(Cl)c(Nc3ccccc3C(=O)C(=O)N(C)C)n2)c1` [Example 114, (E)-N-(3-(5-chloro-4-(2-(2-(dimethylamino)-2-oxoacetyl)phenylamino)pyrimidin-2-ylamino)phenyl)-4-(dimethylamino)but-2-enamide], the “Activity (control) % EGFR (T790M, L858R) (h)” value in assay [1] came out at 8%. Also, in assay [2], the “Activity (control) % ALK (h)” value came out at 10%. In assay [3], the “Activity (control) % EGFR (L858R) (h)” value came to 52%. Further, the “Activity (control) % EGFR (h)” value in assay [4] is 91%. The “Activity (control) % EGFR (T790M) (h)” value in assay [5] worked out at 47%.

Turning to `COc1cc(Nc2ncc(Cl)c(Nc3ccccc3C(=O)C(=O)N(C)C)n2)ccc1N1CCOCC1` [Example 117, 2-(2-(5-chloro-2-(3-methoxy-4-morpholinophenylamino)pyrimidin-4-ylamino)phenyl)-N,N-dimethyl-2-oxoacetamide], the “Activity (control) % EGFR (T790M, L858R) (h)” value in assay [1] is given as 14%. The “Activity (control) % ALK (h)” value in assay [2] amounted to 8%. For the same molecule, the “Activity (control) % EGFR (L858R) (h)” value in assay [3] is on record as 88%. Also, in assay [4], the “Activity (control) % EGFR (h)” value was 113%. The “Activity (control) % EGFR (T790M) (h)” value in assay [5] is 65%.

Consider `CCC(=O)Nc1cc(Nc2ncc(Cl)c(Nc3ccccc3C(=O)C(=O)N(C)C)n2)ccc1OCCN(C)C` [Example 120, N-(5-(5-chloro-4-(2-(2-(dimethylamino)-2-oxoactyl)phenylamino)pyrimidin-2-ylamino)-2-(2-(dimethylamino)ethoxy)phenyl)propionamide], for which the “Activity (control) % EGFR (T790M, L858R) (h)” value in assay [1] is reported as 14%. Moreover, in assay [2], the “Activity (control) % ALK (h)” value was found to be 8%. Besides, the “Activity (control) % EGFR (L858R) (h)” value in assay [3] came out at 76%. Also, in assay [4], the “Activity (control) % EGFR (h)” value is reported as 115%. For the same molecule, the “Activity (control) % EGFR (T790M) (h)” value in assay [5] was found to be 62%.

In the case of `CN(C)C(=O)C(=O)c1ccccc1Nc1nc(Nc2ccc(F)c(NC(=O)CCN3CCOCC3)c2)ncc1Cl` [Example 123, N-(5-(5-chloro-4-(2-(2-(dimethylamino)-2-oxoactyl)phenylamino)pyrimidin-2-ylamino)-2-fluorophenyl)-3-morpholinopropanamide], the “Activity (control) % EGFR (T790M, L858R) (h)” value in assay [1] came to 31%. In addition, in assay [2], the “Activity (control) % ALK (h)” value is 17%. For the same molecule, in assay [3], the “Activity (control) % EGFR (L858R) (h)” value turned out to be 94%. The “Activity (control) % EGFR (h)” value in assay [4] stood at 115%. Besides, the “Activity (control) % EGFR (T790M) (h)” value in assay [5] was determined as 84%.

As for `C=C(CN(C)CCN(C)C)C(=O)Nc1cccc(Nc2ncc(Cl)c(Nc3ccccc3C(=O)C(=O)N(C)C)n2)c1` [Example 125, N-(3-(5-chloro-4-(2-(2-(dimethylamino)-2-oxoacetyl)phenylamino)pyrimidin-2-ylamino)phenyl)-2-(((2-(dimethylamino)ethyl)(methyl)amino)methyl)acrylamide], the “Activity (control) % EGFR (T790M, L858R) (h)” value in assay [1] was 2%. Also, the “Activity (control) % ALK (h)” value in assay [2] was 20%. In addition, the “Activity (control) % EGFR (L858R) (h)” value in assay [3] came out at 54%. In assay [4], the “Activity (control) % EGFR (h)” value was found to be 106%. Besides, the “Activity (control) % EGFR (T790M) (h)” value in assay [5] is 18%.

Turning to `C=C(CN1CCCCC1)C(=O)Nc1cc(Nc2ncc(Cl)c(Nc3ccccc3C(=O)C(=O)N(C)C)n2)ccc1N1CCOCC1` [Example 129, N-(5-(5-chloro-4-(2-(2-(dimethylamino)-2-oxoactyl)phenylamino)pyrimidin-2-ylamino)-2-morpholinophenyl)-2-(piperidin-1-ylmethyl)acrylamide], the “Activity (control) % EGFR (T790M, L858R) (h)” value in assay [1] worked out at 3%. The “Activity (control) % ALK (h)” value in assay [2] is 8%. Also, in assay [3], the “Activity (control) % EGFR (L858R) (h)” value is on record as 75%. In assay [4], the “Activity (control) % EGFR (h)” value is 104%. For the same molecule, the “Activity (control) % EGFR (T790M) (h)” value in assay [5] stood at 24%.

Regarding `CCN(CC)C(=O)C(=O)c1ccccc1Nc1nc(Nc2ccc(N3CCN(C)CC3)c(OC)c2)ncc1Cl` [Example 130, 2-(2-(5-chloro-2-(3-methoxy-4-(4-methylpiperazin-1-yl)phenylamino)pyrimidin-4-ylamino)phenyl)-N,N-diethyl-2-oxoacetamide], the “Activity (control) % EGFR (T790M, L858R) (h)” value in assay [1] is on record as 22%. For the same molecule, in assay [2], the “Activity (control) % ALK (h)” value is on record as 13%. Further, in assay [3], the “Activity (control) % EGFR (L858R) (h)” value worked out at 98%. In addition, the “Activity (control) % EGFR (h)” value in assay [4] is 113%. For the same molecule, the “Activity (control) % EGFR (T790M) (h)” value in assay [5] worked out at 84%.

Consider `C=CC(=O)Nc1cc(Nc2ncc(Cl)c(Nc3ccccc3C(=O)C(=O)N(CC)CC)n2)ccc1OC` [Example 132, N-(5-(5-chloro-4-(2-(2-(diethylamino)-2-oxoactyl)phenylamino)pyrimidin-2-ylamino)-2-methoxyphenyl)acrylamide], for which the “Activity (control) % EGFR (T790M, L858R) (h)” value in assay [1] turned out to be 30%. In addition, the “Activity (control) % ALK (h)” value in assay [2] worked out at 16%. The “Activity (control) % EGFR (L858R) (h)” value in assay [3] was found to be 114%. The “Activity (control) % EGFR (h)” value in assay [4] was found to be 103%. Besides, in assay [5], the “Activity (control) % EGFR (T790M) (h)” value worked out at 77%.
